Reference: ChEMBL document CHEMBL3885881, “DrugMatrix”

Species: Rattus norvegicus
Assay: DrugMatrix - Regimen: Daily Repeat
Type: toxicity, organism-based, Sprague-Dawley
Parameters: regimen Daily Repeat, gender Male, age 6-8 weeks
Settings: in vivo, po, route oral GAVAGE, […]; for ABSOLUTE BASOPHIL / ABSOLUTE EOSINOPHIL / ABSOLUTE LYMPHOCYTE / ABSOLUTE MONOCYTE / ABSOLUTE SEGMENTED NEUTROPHIL / BASOPHIL / EOSINOPHIL / ERYTHROCYTE COUNT / HEMATOCRIT / HEMOGLOBIN / LEUKOCYTE COUNT / LYMPHOCYTE / MEAN CORPUSCULAR HEMOGLOBIN / MEAN CORPUSCULAR HEMOGLOBIN CONCENTRATION / MEAN CORPUSCULAR VOLUME / MONOCYTE / NEUTROPHIL / NUCLEATED RED BLOOD CELLS / PLATELET COUNT: tissue Blood; for ALANINE AMINOTRANSFERASE / ALBUMIN / ALKALINE PHOSPHATASE / ASPARTATE AMINOTRANSFERASE / BLOOD UREA NITROGEN / CARBON DIOXIDE / CHLORIDE / CHOLESTEROL / CREATINE PHOSPHOKINASE / CREATININE / GLUCOSE / LACTATE DEHYDROGENASE / LIPASE / PHOSPHORUS / POTASSIUM / SODIUM / TOTAL BILIRUBIN / TOTAL PROTEIN / URIC ACID: tissue Plasma
[1] = 100 mg/kg, 120 h, dose level M1, time 5 day
[2] = 610 mg/kg, 72 h, dose level High, time 3 day
[3] = 610 mg/kg, 120 h, dose level High, time 5 day

Question: Which “ABSOLUTE BASOPHIL” value [1] does the source give for CC(C)(c1ccc(O)cc1)c1ccc(O)cc1 [BISPHENOL A] here?
Answer: 0 CELLS/uL

Question: And the “ABSOLUTE EOSINOPHIL” value [1]?
Answer: 0 CELLS/uL

Question: What about the “ABSOLUTE LYMPHOCYTE” value [1] of the same molecule?
Answer: 6683.33 CELLS/uL

Question: And the “ABSOLUTE MONOCYTE” value [1]?
Answer: 63.33 CELLS/uL

Question: What about the “ABSOLUTE SEGMENTED NEUTROPHIL” value [1] of the same molecule?
Answer: 353.33 CELLS/uL

Question: What about the BASOPHIL [1] of the same molecule?
Answer: 0%

Question: And the EOSINOPHIL [1]?
Answer: 0%

Question: And the “ERYTHROCYTE COUNT” value [1]?
Answer: 5.4 x10E6/uL

Question: And the HEMATOCRIT [1]?
Answer: 32.4%

Question: And the HEMOGLOBIN [1]?
Answer: 12.83 G/DL

Question: And the “LEUKOCYTE COUNT” value [1]?
Answer: 7.1 x10E3/uL

Question: And the LYMPHOCYTE [1]?
Answer: 94%

Question: What about the “MEAN CORPUSCULAR HEMOGLOBIN” value [1] of the same molecule?
Answer: 23.8 pg

Question: And the “MEAN CORPUSCULAR HEMOGLOBIN CONCENTRATION” value [1]?
Answer: 39.63 G/DL

Question: What about the “MEAN CORPUSCULAR VOLUME” value [1] of the same molecule?
Answer: 59.87 fL

Question: What about the MONOCYTE [1] of the same molecule?
Answer: 1%

Question: And the NEUTROPHIL [1]?
Answer: 5%

Question: What about the “NUCLEATED RED BLOOD CELLS” value [1] of the same molecule?
Answer: 0 /100WBC

Question: And the “PLATELET COUNT” value [1]?
Answer: 1281.67 x10E3/uL

Question: What about the “ALANINE AMINOTRANSFERASE” value [1] of the same molecule?
Answer: 80.33 u/L

Question: And the ALBUMIN [1]?
Answer: 4.13 G/DL

Question: What about the “ALKALINE PHOSPHATASE” value [1] of the same molecule?
Answer: 398.67 u/L

Question: And the “ASPARTATE AMINOTRANSFERASE” value [1]?
Answer: 90.33 u/L

Question: What about the “BLOOD UREA NITROGEN” value [1] of the same molecule?
Answer: 13.33 mg/dL

Question: What about the “CARBON DIOXIDE” value [1] of the same molecule?
Answer: 29.33 mmol/L

Question: And the CHLORIDE [1]?
Answer: 100.33 MEQ/L

Question: What about the CHOLESTEROL [1] of the same molecule?
Answer: 54.67 mg/dL

Question: And the “CREATINE PHOSPHOKINASE” value [1]?
Answer: 295 u/L

Question: And the CREATININE [1]?
Answer: 0.26 mg/dL

Question: What about the GLUCOSE [1] of the same molecule?
Answer: 161 mg/dL

Question: What about the “LACTATE DEHYDROGENASE” value [1] of the same molecule?
Answer: 102.33 u/L

Question: What about the LIPASE [1] of the same molecule?
Answer: 13.33 u/L

Question: And the PHOSPHORUS [1]?
Answer: 9.57 mg/dL

Question: And the POTASSIUM [1]?
Answer: 5.37 MEQ/L

Question: What about the SODIUM [1] of the same molecule?
Answer: 144.17 MEQ/L

Question: And the “TOTAL BILIRUBIN” value [1]?
Answer: 0.17 mg/dL

Question: And the “TOTAL PROTEIN” value [1]?
Answer: 5.77 G/DL

Question: And the “URIC ACID” value [1]?
Answer: 0.83 mg/dL

Question: And the “ABSOLUTE BASOPHIL” value [2]?
Answer: 0 CELLS/uL

Question: And the “ABSOLUTE EOSINOPHIL” value [2]?
Answer: 22.33 CELLS/uL

Question: And the “ABSOLUTE LYMPHOCYTE” value [2]?
Answer: 6406 CELLS/uL

Question: And the “ABSOLUTE MONOCYTE” value [2]?
Answer: 44.67 CELLS/uL

Question: What about the “ABSOLUTE SEGMENTED NEUTROPHIL” value [2] of the same molecule?
Answer: 760.33 CELLS/uL

Question: What about the BASOPHIL [2] of the same molecule?
Answer: 0%

Question: What about the EOSINOPHIL [2] of the same molecule?
Answer: 0.33%

Question: What about the “ERYTHROCYTE COUNT” value [2] of the same molecule?
Answer: 5.65 x10E6/uL

Question: And the HEMATOCRIT [2]?
Answer: 34.33%

Question: What about the HEMOGLOBIN [2] of the same molecule?
Answer: 13.43 G/DL

Question: And the “LEUKOCYTE COUNT” value [2]?
Answer: 7.23 x10E3/uL

Question: And the LYMPHOCYTE [2]?
Answer: 88.33%

Question: And the “MEAN CORPUSCULAR HEMOGLOBIN” value [2]?
Answer: 23.77 pg

Question: What about the “MEAN CORPUSCULAR HEMOGLOBIN CONCENTRATION” value [2] of the same molecule?
Answer: 39.1 G/DL

Question: What about the “MEAN CORPUSCULAR VOLUME” value [2] of the same molecule?
Answer: 60.8 fL

Question: And the MONOCYTE [2]?
Answer: 0.67%

Question: And the NEUTROPHIL [2]?
Answer: 10.67%

Question: And the “NUCLEATED RED BLOOD CELLS” value [2]?
Answer: 0.33 /100WBC

Question: What about the “PLATELET COUNT” value [2] of the same molecule?
Answer: 1156 x10E3/uL

Question: And the “ALANINE AMINOTRANSFERASE” value [2]?
Answer: 84.33 u/L

Question: And the ALBUMIN [2]?
Answer: 3.93 G/DL

Question: And the “ALKALINE PHOSPHATASE” value [2]?
Answer: 316.33 u/L

Question: What about the “ASPARTATE AMINOTRANSFERASE” value [2] of the same molecule?
Answer: 77.67 u/L

Question: What about the “BLOOD UREA NITROGEN” value [2] of the same molecule?
Answer: 15.67 mg/dL

Question: And the “CARBON DIOXIDE” value [2]?
Answer: 31.33 mmol/L

Question: And the CHLORIDE [2]?
Answer: 100 MEQ/L

Question: What about the CHOLESTEROL [2] of the same molecule?
Answer: 64.33 mg/dL

Question: What about the “CREATINE PHOSPHOKINASE” value [2] of the same molecule?
Answer: 263.67 u/L

Question: And the CREATININE [2]?
Answer: 0.18 mg/dL

Question: What about the GLUCOSE [2] of the same molecule?
Answer: 157.33 mg/dL

Question: And the “LACTATE DEHYDROGENASE” value [2]?
Answer: 115.67 u/L

Question: And the LIPASE [2]?
Answer: 10 u/L

Question: What about the PHOSPHORUS [2] of the same molecule?
Answer: 10.37 mg/dL

Question: And the POTASSIUM [2]?
Answer: 5.53 MEQ/L

Question: And the SODIUM [2]?
Answer: 143.73 MEQ/L

Question: And the “TOTAL BILIRUBIN” value [2]?
Answer: 0.27 mg/dL

Question: And the “TOTAL PROTEIN” value [2]?
Answer: 5.73 G/DL

Question: What about the “URIC ACID” value [2] of the same molecule?
Answer: 0.7 mg/dL

Question: And the “ABSOLUTE BASOPHIL” value [3]?
Answer: 0 CELLS/uL

Question: What about the “ABSOLUTE EOSINOPHIL” value [3] of the same molecule?
Answer: 0 CELLS/uL

Question: And the “ABSOLUTE LYMPHOCYTE” value [3]?
Answer: 8347 CELLS/uL

Question: And the “ABSOLUTE MONOCYTE” value [3]?
Answer: 82 CELLS/uL

Question: And the “ABSOLUTE SEGMENTED NEUTROPHIL” value [3]?
Answer: 671 CELLS/uL

Question: And the BASOPHIL [3]?
Answer: 0%

Question: What about the EOSINOPHIL [3] of the same molecule?
Answer: 0%

Question: And the “ERYTHROCYTE COUNT” value [3]?
Answer: 5.73 x10E6/uL

Question: What about the HEMATOCRIT [3] of the same molecule?
Answer: 35.8%

Question: And the HEMOGLOBIN [3]?
Answer: 14.07 G/DL

Question: What about the “LEUKOCYTE COUNT” value [3] of the same molecule?
Answer: 9.1 x10E3/uL

Question: What about the LYMPHOCYTE [3] of the same molecule?
Answer: 91.67%

Question: And the “MEAN CORPUSCULAR HEMOGLOBIN” value [3]?
Answer: 24.6 pg

Question: What about the “MEAN CORPUSCULAR HEMOGLOBIN CONCENTRATION” value [3] of the same molecule?
Answer: 39.3 G/DL

Question: And the “MEAN CORPUSCULAR VOLUME” value [3]?
Answer: 62.63 fL

Question: And the MONOCYTE [3]?
Answer: 0.67%

Question: And the NEUTROPHIL [3]?
Answer: 7.67%

Question: And the “NUCLEATED RED BLOOD CELLS” value [3]?
Answer: 0.33 /100WBC

Question: And the “PLATELET COUNT” value [3]?
Answer: 1180 x10E3/uL

Question: And the “ALANINE AMINOTRANSFERASE” value [3]?
Answer: 106.33 u/L

Question: And the ALBUMIN [3]?
Answer: 4.3 G/DL

Question: And the “ALKALINE PHOSPHATASE” value [3]?
Answer: 452.33 u/L

Question: What about the “ASPARTATE AMINOTRANSFERASE” value [3] of the same molecule?
Answer: 135.67 u/L

Question: What about the “BLOOD UREA NITROGEN” value [3] of the same molecule?
Answer: 12 mg/dL

Question: And the “CARBON DIOXIDE” value [3]?
Answer: 29 mmol/L

Question: What about the CHLORIDE [3] of the same molecule?
Answer: 100.5 MEQ/L

Question: What about the CHOLESTEROL [3] of the same molecule?
Answer: 60.33 mg/dL

Question: What about the “CREATINE PHOSPHOKINASE” value [3] of the same molecule?
Answer: 592 u/L

Question: What about the CREATININE [3] of the same molecule?
Answer: 0.11 mg/dL

Question: And the GLUCOSE [3]?
Answer: 154 mg/dL

Question: What about the “LACTATE DEHYDROGENASE” value [3] of the same molecule?
Answer: 112 u/L

Question: What about the LIPASE [3] of the same molecule?
Answer: 48.33 u/L

Question: And the PHOSPHORUS [3]?
Answer: 8.77 mg/dL

Question: And the POTASSIUM [3]?
Answer: 5.17 MEQ/L

Question: What about the SODIUM [3] of the same molecule?
Answer: 144.95 MEQ/L

Question: And the “TOTAL BILIRUBIN” value [3]?
Answer: 0.27 mg/dL

Question: What about the “TOTAL PROTEIN” value [3] of the same molecule?
Answer: 5.53 G/DL

Question: And the “URIC ACID” value [3]?
Answer: 0.6 mg/dL
